Measured values published in patent publication US20230066474A1, “LYSOSOME-TARGETING ANTIBODY-DRUG CONJUGATE AND USE THEREOF” (Sun Yat-Sen University, priority 2019, published 2023).
Where a SMILES comes first, the peptide text is derived from it. [ ]: non-standard residue; d: D form. Dolaproine = CO[C@@H]([C@@H]1CCCN1)[C@@H](C)C(=O)O; Dil = CC[C@H](C)[C@H](NC)[C@@H](CC(=O)O)OC; NMeV = CN[C@H](C(=O)O)C(C)C

Tested on: A431 cells
Assay: 2D tumor cell model cytotoxicity, Cell Counting Kit-8 (CCK-8)
Assay type: cell-based, human
Conditions: treated 96 h, CCK-8 viability, mean±SEM (n=3)
Experimental: 2D tumor cell model was used, where ADCs of varying concentrations were added to a 96-well plate seeded with A431 cells and treated for 96 h. The cell viability was examined using Cell Counting Kit-8 (CCK-8).

Question: For `CC[C@H](C)[C@@H]([C@@H](CC(=O)N1CCC[C@H]1[C@H](OC)[C@@H](C)C(=O)N[C@@H](Cc1ccccc1)C(=O)O)OC)N(C)C(=O)[C@@H](NC(=O)[C@@H](NC)C(C)C)C(C)C` [MMAF, monomethylaurethatin F] (H-[NMeV]V[Dil][Dolaproine]F-OH), which EC50 is on record?
Answer: The EC50 was 955 ± 289 nM.
